Reference: article PMC12314183, “RM2 and DB15 analogues bearing [^177Lu]Lu-DOTAGA via different linkers, as radiotherapeutics: a head-to-head comparative study” (EJNMMI Radiopharmacy and Chemistry, 2025)
One block for each compound: values may come before it.

Key:
[1] = molecular target: T1, GRPR (Homo sapiens, UniProt P30550); test: Receptor affinity and kinetics by LigandTracer on living PC-3 cells; type: binding
T1 construct: host or cells: PC-3 (human prostate cancer cell line)
Procedure: Receptor affinity was measured using a LigandTracer yellow (Ridgeview Instruments AB, Uppsala, Sweden). For each measurement 3 million PC-3 cells were seeded in 100 mm dishes (Corning St. Oneonta, N.Y., USA) the day before the experiment. Three concentrations for each radioligand were tested (1, 3 and 5 nM) in order to determine the association values. After reaching plateau, the media containing the radioligands were removed, fresh complete media were introduced in the plates and the dissociation phase was measured overnight.

[2] = tested on: PC-3 xenograft bearing mice; parameters: AUC Kidneys: unit not given beside the values; settings: mouse, in vivo
[3] = tested on: PC-3 xenograft bearing mice; test: Biodistribution in PC-3 xenograft bearing mice; settings: mouse, in vivo
Procedure: The biodistribution profile for the four radioligands was determined in female Balb/c nu/nu mice. All the animals were subcutaneously implanted with a suspension of 8 × 10^6 PC-3 cells in the right hind leg. After approximately 3–4 weeks, tumours were developed and animals were randomized in groups of four (with the exception of the Block groups comprising instead 3 animals). For each radioligand 3 groups were used, namely, 4 h, 23 h pi and 4 h Block. Each animal received 2.82 mg of sacubitril (in the form of 12 mg of an Entresto pill suspension) per os and after 30 min, a bolus iv injection of 100–110 kBq of [^177Lu]Lu-peptide (corresponding to 100 pmol total peptide). Animals were euthanized at the predetermined time points and tissues of interest and xenografts were collected, weighted and their activity content was measured in the gamma counter. […] Statistical analysis was performed using GraphPad Prism 10 and a two-way ANOVA with Tuckey’s post hock analysis. Area under curve for kidneys and tumours was estimated by fitting a one-phase decay model and calculating the area under the resulting equation.

[4] = 5 min pi, ref Nock et al. [2017]; cited from earlier work
Excerpt: (§1) In comparison with [^177Lu]Lu-NeoBomb1 (Dalm et al. [2017]; Nock et al. [2017]), [^177Lu]Lu-AU-SAR-M1 utilizes a different chelator (DOTAGA for AU-SAR-M1 and DOTA for NeoBomb1).

[5] = tested on: PC-3 xenograft bearing mice; settings: 4 h pi, ref Dalm et al. [2017], cited from earlier work
Excerpt: as §1

[6] = tested on: tumours; settings: ref Dumont et al. [2013], cited from earlier work
Excerpt: For [^177Lu]Lu-RM2 (Dumont et al. [2013]), the reported dose per animal was 250 pmol peptide corresponding to 4.63 MBq.

[7] = living PC-3 cells, 1:1 model used (footnote)

T1 sequence (P30550 whole entry): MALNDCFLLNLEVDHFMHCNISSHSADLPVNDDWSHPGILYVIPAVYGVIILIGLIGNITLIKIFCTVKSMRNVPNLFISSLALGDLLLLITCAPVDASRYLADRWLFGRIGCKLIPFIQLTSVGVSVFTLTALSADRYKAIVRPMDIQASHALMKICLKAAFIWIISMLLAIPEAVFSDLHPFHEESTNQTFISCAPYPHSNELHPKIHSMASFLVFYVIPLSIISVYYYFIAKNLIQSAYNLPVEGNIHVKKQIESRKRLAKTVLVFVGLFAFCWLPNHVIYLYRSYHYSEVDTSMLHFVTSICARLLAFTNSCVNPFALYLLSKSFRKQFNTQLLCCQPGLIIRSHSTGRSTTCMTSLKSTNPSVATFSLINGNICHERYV

ka1 [1, 7]: 90900 M⁻¹ s⁻¹
kd1 [1, 7]: 6.44 × 10^–7 s^−1
AUC Kidneys [2]: 68
AUC Tumour [2]: 259
AUC ratio Tumour/Kidneys [2]: 3.8
Tumour-to-Kidneys AUC ratio, fold higher than [^177Lu]Lu-AU-RM26-M4 [2]: 1.6 fold
Tumour-to-Kidneys AUC ratio, fold higher than [^177Lu]Lu-AU-SAR-M1 [2]: 1.4 fold
Compound: CCNC(=O)[C@H](CC(C)C)NC(=O)[C@H](Cc1c[nH]cn1)NC(=O)CN(C)C(=O)[C@@H](NC(=O)[C@H](C)NC(=O)[C@H](Cc1c[nH]c2ccccc12)NC(=O)[C@H](CCC(N)=O)NC(=O)[C@@H](Cc1ccccc1)NC(=O)COCC(=O)Nc1ccc(CNC(=O)[C@H](CCCNC(=N)N)NC(=O)CCC(C(=O)O)N2CCN(CC(=O)O)CCN(CC(=O)O)CCN(CC(=O)O)CC2)cc1)C(C)C (some centres unmarked) [[^177Lu]Lu-AU-SAR-M2, DOTAGA-Arg-AMA-DIG-SAR, metal not drawn]

Compound: CCNC(=O)[C@H](CC(C)C)NC(=O)[C@H](Cc1c[nH]cn1)NC(=O)CN(C)C(=O)[C@@H](NC(=O)[C@H](C)NC(=O)[C@H](Cc1c[nH]c2ccccc12)NC(=O)[C@H](CCC(N)=O)NC(=O)[C@@H](Cc1ccccc1)NC(=O)COCC(=O)Nc1ccc(CNC(=O)CCC(C(=O)O)N2CCN(CC(=O)O)CCN(CC(=O)O)CCN(CC(=O)O)CC2)cc1)C(C)C (some centres unmarked) [[^177Lu]Lu-AU-SAR-M1, DOTAGA-AMA-DIG-SAR, metal not drawn]
ka1 ([1]; living PC-3 cells, 1, 3 and 5 nM, 1:2 model): 65700 M⁻¹ s⁻¹
ka2 ([1]; living PC-3 cells, 1:2 model): 614000 M⁻¹ s⁻¹
kd1 ([1]; living PC-3 cells, 1:2 model): 1.76 × 10^–6 s^−1
kd2 ([1]; living PC-3 cells, 1:2 model): 7.43 × 10^–4 s^−1
AUC Kidneys [2]: 45
AUC Tumour [2]: 242
AUC ratio Tumour/Kidneys [2]: 5.4
tumour-to-kidney ratio for the estimated AUC, times better than the next candidate [3]: 1.4 times

AUC Kidneys [2]: 56
AUC Tumour [2]: 62
Compound: CC(C)C[C@H](NC(=O)C[C@H](O)[C@H](CC(C)C)NC(=O)[C@H](Cc1c[nH]cn1)NC(=O)CN(C)C(=O)[C@@H](NC(=O)[C@H](C)NC(=O)[C@H](Cc1c[nH]c2ccccc12)NC(=O)[C@H](CCC(N)=O)NC(=O)[C@@H](Cc1ccccc1)NC(=O)CN1CCC(NC(=O)COCCOCCNC(=O)CCC(C(=O)O)N2CCN(CC(=O)O)CCN(CC(=O)O)CCN(CC(=O)O)CC2)CC1)C(C)C)C(N)=O (some centres unmarked) [[^177Lu]Lu-AU-RM26-M2, DOTAGA-PEG2-Pip-[NMe-Gly^11]RM26, metal not drawn]

Compound: DOTA-AMA-DIG-DPhe-Gln-Trp-Ala-Val-Gly-His-NHCH[(CH2-CH(CH3)2]2 [[^177Lu]Lu-NeoBomb1, Lu-177-based GRPR-antagonist already tested in patients]
intact peptide detected in mice circulation [4]: 95%
tumour values ([5]; PC-3 xenograft bearing mice, 200 pmol – 1 MBq): 17.9 ± 3.3 %IA/g
kidneys uptake [5]: 2.5%

Compound: DOTA-4-amino-1-carboxymethyl-piperidine-DPhe-Gln-Trp-Ala-Val-Gly-His-Sta-Leu-NH2 [[^177Lu]Lu-RM2]
tumour uptake ([6]; 4 h pi, 250 pmol peptide, 4.63 MBq): 10.97 ± 0.99 %IA/g
activity uptake in pancreas ([6]; 4 h pi): 0.70 ± 0.12 %IA/g
activity remaining in the tumours ([6]; 24 h pi relative to 4 h pi): approximately 50%
